The source of these data is US20140296337A1, “CNS MODULATORS” (BTG International Limited, priority 2004, published 2014).

Structures are written as SMILES.

Assay [1] deals with electrical power of four rat brain areas (frontal cortex, hippocampus, striatum, reticular formation). The assay can be described thus: Tele-Stereo-EEG: continuous recording of intracerebral field potentials in the freely moving rat. It counts as in vivo. The source says:
Analysis of brain field potentials (“Tele-Stereo-EEG”) has been proven to be a very sensitive tool for the characterization of drug effects on the central nervous system (Dimpfel et al., 1986). After administration of a centrally active drug, quantitative changes in the brain field potentials can be considered as a characteristic fingerprint of that particular drug. “Fingerprints” of more than 100 compounds have been obtained including 8 established drug categories, e.g. analgesics, antidepressants, neuroleptics, stimulants, tranquilizers, sedatives and narcotics. Different dosages of the same drug cause quantitative changes in electrical power. […] Direct comparison with specific reference drugs, or by discriminant analysis with reference to an extensive fingerprint database, permits the detection of any possible similarities with established drugs. In general, “fingerprints” show prominent differences for drugs prescribed for different indications and are similar for drugs with similar indication (Dimpfel 2003). Furthermore, the pattern of EEG changes in the rat is a useful tool in predicting possible changes in the EEG power spectrum in humans.
Five intraperitoneal doses (30 mg/kg, 100 mg/kg, 300 mg/kg, 600 mg/kg and 1000 mg/kg body weight) of sodium (R)-3-hydroxybutyrate (BHB) were investigated using the “Tele-Stereo-EEG” animal model consisting of continuous recording of intracerebral field potentials in the freely moving rat. No effects could be measured using 1 ml/kg of a solution containing 20 mM of Na-bicarbonate (pH 8.4 or pH 12.5) for control purposes. […] Most marked changes were observed within the alpha2 range.
Adult Fisher rats (4-6 month of age and day—night converted, weight about 400 g) were implanted with 4 bipolar concentric steel electrodes using a stereotactic surgical procedure (Paxinos and Watson, 1982). All four electrodes were placed 3 mm lateral within the left hemisphere. Anterior coordinates were 12.2, 5.7, 9.7 and 3.7 mm for frontal cortex, hippocampus, striatum and reticular formation, respectively. A baseplate carrying the electrodes and a 5-pin-plug was fixed to the skull by dental cement attached to 3 steel screws fixed into the skull. Animals were given two weeks for recovery from the surgical procedure. Experiments were performed in compliance with the German Health Authority Guidelines and with local authority approval. EEG signals were recorded from frontal cortex, hippocampus, striatum and reticular formation and were amplified and processed as described previously (see Dimpfel et al., 1986). After automatic artefact rejection, signals were collected in sweeps of 4 s duration and submitted to Fast Fourier transformation. The resulting electrical power spectra were divided into 6 frequency ranges: delta (0.8-4.5 Hz); theta (4.75-6.75 Hz); alpha1 (7.00-9.50 Hz); alpha2 (9.75-12.50 Hz); beta (12.75-18.50 Hz); beta2 (18.75-35.00 Hz). […] In an off-line procedure spectra were averaged to give 15 minute or longer periods for further statistical analysis.
Five dosages of BHB (30, 100, 300, 600 and 1000 mg/kg body weight) (supplied by Solvias AG, CH 4002 Basel, Switzerland, batch No: SO-1058.047.1.120) and a vehicle control (0.9% w/v saline) were administered intraperitoneously to a group of 12 animals using a crossover design with at least 3 drug holidays in between the applications. Additional controls consisted of a 1 ml/kg of a solution containing 20 mM of Na-bicarbonate (adjusted to 8.4 and pH 12.5 obtained by titration with 1N NaOH) were tested to ascertain possible effects due to the alkaline pH of the BHB solution. After a pre-drug period of 45 minutes for baseline recording, drug effects were observed continuously for 300 minutes. Changes of electrical power (μV2W) are expressed as % of the 45 min. pre-drug values. Multivariate statistics were calculated according to Ahrens and Lauter (1974).

In assay [2] the test system is EEG frequency bands (delta, theta activity). The following applies: cited from earlier work.
Where [3] appears, read: BHB 100 mg/kg i.p. single dose, rat.
[4] abbreviates: BHB 300 mg/kg i.p. single dose, rat.

`C[C@@H](O)CC(=O)[O-].[Na+]` [BHB, sodium (R)-3-hydroxybutyrate]: the “discriminant analysis of EEG fingerprint (24 variables)” value in assay [1] (6 frequency ranges, 4 brain areas, one time period) is “close proximity to paroxetine and tramadol”. The “effects on EEG frequencies relative to the saline control” value in assay [1] (BHB 30 mg/kg body weight i.p. single dose, rat) was “no statistically significant effects”. The “duration of EEG effects” value in assay [1] (setting [3]) is 1 to 2 h; in assay [1] (BHB 600 mg/kg i.p. single dose, rat, generally, except reticular formation) it was 2 h. For the same molecule, the “statistical significance of EEG changes” value is “not statistically significant” in assay [1] (setting [3]); “statistically significant for the frontal cortex, hippocampus and reticular formation, but not for the striatum” in assay [1] (BHB 300 mg/kg i.p. single dose, rat, by brain region); “statistically highly significant” in assay [1] (BHB 600 mg/kg i.p. single dose, rat, including first hour within striatum); “statistically highly significant” in assay [1] (BHB 1000 mg/kg i.p. single dose, rat, even 5th hour within reticular formation); “statistically highly significant” in assay [1] (BHB dose levels of 300-1000 mg/kg i.p., rat). For the same molecule, the “EEG frequency changes (electrical power, % of pre-drug values)” value in assay [1] (BHB 100 mg/kg i.p. single dose, rat, all regions, mainly alpha2, less delta) was “decrease of electrical power”; in assay [1] (setting [4]) it was “decreases in alpha2 power throughout all brain regions”; in assay [1] (BHB 1000 mg/kg i.p. single dose, rat), “more prominent decreases of power lasting into the third hour”. In assay [1] (setting [4]), the “duration of pattern of EEG changes” value is “two”. In addition, the “duration of decreases of power in the reticular formation” value in assay [1] (BHB 600 mg/kg i.p. single dose, rat) was “persisted throughout the third hour”; in assay [1] (BHB 1000 mg/kg i.p. single dose, rat, total experimental time), 5 h. The “similarity of EEG electrical fingerprint to reference drugs” value in assay [1] (BHB at a lower dosage, vs galanthamine 3 mg/kg and paroxetine 2 mg/kg) is “similarity to the “electrical fingerprints” of the acetylcholine esterase inhibitor galanthamine and also the antidepressant paroxetine”. In addition, the “similarity of EEG profile to reference drugs” value in assay [1] (higher dosages of BHB, vs tramadol 10 mg/kg) was “reminiscent of the effects as observed after the administration of tramadol”.
Regarding `Clc1cccc(Cl)c1N=C1NCCN1` [clonidine], the “change of theta activity” value in assay [2] (drug down regulating the norepinephrine system (presynaptic adrenergic alpha2 receptor)) is “increases”.
Consider `CN1[C@@H]2C[C@@H](OC(=O)[C@H](CO)c3ccccc3)C[C@H]1[C@@H]1O[C@@H]12` [scopolamine], for which, in assay [2] (drugs affecting the cholinergic system), the “change of delta activity” value is given as “increase of power”.
